Values joined by “and” are separate entries in the source; they are usually repeats but may differ in a detail not shown here. Equal entries are not always repeated.
Conditions: Hot wire method

CCF [fluoroethane]
Liquid
Conditions	thermal conductivity
233.99 K	0.1496 W/m/K
234 K	0.1487 W/m/K
234.01 K	0.1487 W/m/K
234.32 K	0.1483 W/m/K and 0.1482 W/m/K and 0.1492 W/m/K
234.57 K	0.1496 W/m/K
234.63 K	0.1492 W/m/K
234.64 K	0.149 W/m/K
244.01 K	0.1429 W/m/K
244.04 K	0.1429 W/m/K and 0.1423 W/m/K
244.22 K	0.1424 W/m/K
244.25 K	0.143 W/m/K
244.26 K	0.1433 W/m/K
244.5 K	0.1426 W/m/K
244.51 K	0.142 W/m/K
244.54 K	0.1426 W/m/K
253.79 K	0.1362 W/m/K and 0.1361 W/m/K
253.8 K	0.1362 W/m/K
254.08 K	0.1364 W/m/K
254.09 K	0.1368 W/m/K and 0.1363 W/m/K
254.12 K	0.1357 W/m/K
254.14 K	0.135 W/m/K
254.15 K	0.1346 W/m/K
254.36 K	0.1352 W/m/K
254.37 K	0.1358 W/m/K
254.41 K	0.1355 W/m/K
254.71 K	0.1359 W/m/K
254.75 K	0.1355 W/m/K
254.79 K	0.1354 W/m/K
263.94 K	0.1286 W/m/K
263.95 K	0.128 W/m/K and 0.1283 W/m/K
264.16 K	0.1283 W/m/K
264.17 K	0.1287 W/m/K
264.19 K	0.1288 W/m/K
264.43 K	0.1285 W/m/K
264.51 K	0.1293 W/m/K and 0.129 W/m/K
274.37 K	0.1215 W/m/K
274.39 K	0.1214 W/m/K
274.4 K	0.1213 W/m/K
274.62 K	0.1218 W/m/K
274.64 K	0.1224 W/m/K
274.66 K	0.122 W/m/K
274.95 K	0.1224 W/m/K
274.97 K	0.1224 W/m/K
274.98 K	0.1226 W/m/K
284.17 K	0.1146 W/m/K
284.22 K	0.1146 W/m/K
284.23 K	0.1153 W/m/K
284.43 K	0.1154 W/m/K
284.46 K	0.1155 W/m/K
284.47 K	0.1152 W/m/K
284.78 K	0.1163 W/m/K
284.8 K	0.1164 W/m/K
284.81 K	0.1162 W/m/K
294.43 K	0.1097 W/m/K
294.59 K	0.1098 W/m/K
294.63 K	0.1109 W/m/K and 0.1095 W/m/K
294.64 K	0.1105 W/m/K
294.65 K	0.1103 W/m/K
294.7 K	0.1103 W/m/K
294.89 K	0.1094 W/m/K

Gas
Conditions	thermal conductivity [W/m/K]
236.45 K, 86.1 kPa	0.00838
244.29 K, 84.5 kPa	0.00938
245.47 K, 132.2 kPa	0.00931
246.92 K, 132.2 kPa	0.00972
248.24 K, 132.2 kPa	0.00989
248.83 K, 84.5 kPa	0.00985
254.05 K, 84.5 kPa	0.01031
255.52 K, 201.2 kPa	0.01058
260.98 K, 132.4 kPa	0.01112
265.31 K, 286.1 kPa	0.01142
266.46 K, 286.1 kPa	0.01169
275.33 K, 370.8 kPa	0.01266
276 K, 139.9 kPa	0.01306
276.13 K, 370.8 kPa	0.01296
277.34 K, 370.8 kPa	0.01294
278.06 K, 139.9 kPa	0.01337
278.85 K, 139.9 kPa	0.01329
286.13 K, 481.4 kPa	0.01426
286.26 K, 271.3 kPa	0.01438
287.56 K, 578.8 kPa	0.01402
287.6 K, 481.4 kPa	0.01425
287.72 K, 271.3 kPa	0.01452
288.9 K, 481.4 kPa	0.01448
289.14 K, 271.3 kPa	0.0144

From the NIST ThermoML archive (doi:10.1016/j.fluid.2014.04.038)
